Test results: patent publication US8895471B2, “Chiral3-(benzylsulfinyl)-5,5-dimethyl-4,5-dihydroisoxazole derivatives and 5,5-dimethyl-3-[(1h-pyrazol-4-ylmethyl)sulfinyl]-4,5-dihyddroisoxazole derivatives, method for the production thereof, and use of same as herbicides and plant growth regulators” (Bayer Cropscience AG, priority 2007, dated 2014)

How the values were obtained:
[1] = test system: Alopecurus myosuroides (black-grass); assay: Pre-emergence herbicidal effect, ALOMY; type: in vivo; conditions: scored after about 3 weeks
Excerpt: (§1) 1. Pre-emergence herbicidal effect and crop plant compatibility
(§2) • Seeds of monocotyledonous or dicotyledonous weed plants or crop plants are planted in wood-fiber pots in sandy loam and covered with soil. The compounds according to the invention, formulated in the form of wettable powders (WP), are then applied as aqueous suspension at a water application rate of 600 l/ha (converted) with the addition of 0.2% of wetting agent to the surface of the covering soil. • After the treatment, the pots are placed in a greenhouse and kept under good growth conditions for the test plants. After about 3 weeks, the effect of the preparations is scored visually in comparison with untreated controls (herbicidal effect in percent (%): 100% activity=the plants have died, 0% activity=like control plants). • As shown by the results, the compounds according to the invention have good herbicidal pre-emergence activity against a broad spectrum of weed grasses and broad-leaved weeds. […] Some of the compounds according to the invention have high selectivity and are therefore suitable for controlling unwanted vegetation in agricultural crops by the pre-emergence method.
(§3) • ALOMY Alopecurus myosuroides (black-grass) • LOLMU: Lolium multiflorum (Italian ryegrass) • SETVI: Setaria viridis (green foxtail) • BRSNW: Brassica napus (winter rape) • ZEAMX: Zea mays (corn) 2. Post-Emergence Herbicidal Effect and Crop Plant Compatibility • Seeds of monocotyledonous and dicotyledonous weed and crop plants are placed in sandy loam in wood fibre pots, covered with soil and cultivated in a greenhouse under good growth conditions. 2 to 3 weeks after sowing, the test plants are treated at the one-leaf stage. The compounds according to the invention, formulated in the form of wettable powders (WP), are then applied by spraying as aqueous suspension at a water application rate of 600 l/ha (converted) with the addition of 0.2% of wetting agent to the green parts of the plants. After the test plants have been kept in the greenhouse under optimum growth conditions for about 3 weeks, the activity of the preparations is rated visually in comparison to untreated controls (herbicidal activity in percent (%): 100% activity=the plants have died, 0% activity=like control plants). • As shown by the results, the compounds according to the invention have good herbicidal post-emergence activity against a plurality of weed grasses and broad-leaved weeds. […] Some of the compounds according to the invention have high selectivity and are therefore suitable for controlling unwanted vegetation in agricultural crops by the post-emergence method.

[2] = test system: Setaria viridis (green foxtail); assay: Pre-emergence herbicidal effect, SETVI; type: in vivo; conditions: scored after about 3 weeks
Excerpt: as §1, §2, §3

[3] = test system: Lolium multiflorum (Italian ryegrass); assay: Pre-emergence herbicidal effect, LOLMU; type: in vivo; conditions: scored after about 3 weeks
Excerpt: as §1, §2, §3

[4] = test system: Brassica napus (winter rape); assay: Pre-emergence herbicidal effect and crop plant compatibility, BRSNW; type: in vivo; conditions: scored after about 3 weeks
Excerpt: as §1, §2, §3

[5] = test system: Zea mays (corn); assay: Pre-emergence herbicidal effect and crop plant compatibility, ZEAMX; type: in vivo; conditions: scored after about 3 weeks
Excerpt: as §1, §2, §3

[6] = test system: POLCO; assay: Pre-emergence herbicidal effect, POLCO; type: in vivo; conditions: scored after about 3 weeks
Excerpt: as §1, §2

[7] = test system: VERPE; assay: Pre-emergence herbicidal effect, VERPE; type: in vivo, Veronica persica; conditions: scored after about 3 weeks
Excerpt: as §1, §2

[8] = test system: Avena fatua, Echinochloa crus-galli, Lolium multiflorum, Setaria viridis and Alopecurus myosuroides; assay: Post-emergence herbicidal effect and crop plant compatibility; type: in vivo; conditions: application rate of 0.32 kg and less of active substance per hectare
Excerpt: as §3

[9] = test system: Avena fatua, Stellaria media, Echinochloa crus-galli, Lolium multiflorum, Setaria viridis, Amaranthus retroflexus, Viola tricolor, Veronica persica and …; assay: Pre-emergence herbicidal activity against harmful plants; type: in vivo; conditions: application rate of 0.32 kg and less of active substance per hectare
Excerpt: as §1, §2

Structure (SMILES)	herbicidal effect in percent, ALOMY ([1]; 80 g of active compound/ha) [%]	herbicidal effect in percent, ALOMY ([1]; 320 g of active compound/ha) [%]	herbicidal effect in percent, SETVI ([2]; 80 g of active compound/ha) [%]	herbicidal effect in percent, SETVI ([2]; 320 g of active compound/ha) [%]	herbicidal effect in percent, LOLMU ([3]; 80 g of active compound/ha) [%]	herbicidal effect in percent, LOLMU ([3]; 320 g of active compound/ha) [%]	herbicidal effect in percent, BRSNW (crop plant) ([4]; 80 g of active compound/ha) [%]	herbicidal effect in percent, BRSNW (crop plant) ([4]; 320 g of active compound/ha) [%]	herbicidal effect in percent, ALOMY ([1]; 20 g of active compound/ha) [%]	herbicidal effect in percent, ZEAMX (crop plant) ([5]; 20 g of active compound/ha) [%]	herbicidal effect in percent, ZEAMX (crop plant) ([5]; 80 g of active compound/ha) [%]	herbicidal effect in percent, POLCO ([6]; 80 g of active compound/ha) [%]	herbicidal effect in percent, VERPE ([7]; 20 g of active compound/ha) [%]	herbicidal effect in percent, SETVI ([2]; 20 g of active compound/ha) [%]	herbicidal effect in percent, LOLMU ([3]; 20 g of active compound/ha) [%]	herbicidal effect in percent, BRSNW (crop plant) ([4]; 20 g of active compound/ha) [%]	herbicidal activity against harmful plants, post-emergence method [8]	herbicidal activity against harmful plants, pre-emergence method [9]	herbicidal effect in percent, POLCO ([6]; 20 g of active compound/ha) [%]	herbicidal effect in percent, VERPE ([7]; 80 g of active compound/ha) [%]
CC1(C)CC([S+]([O-])Cc2c(F)cccc2F)=NO1 (racemic) [Racemate of 6 (S config.) and 228 (R config.), 3-[(2,6-difluorobenzyl)sulfinyl]-5,5-dimethyl-4,5-dihydroisoxazole, reference compound]	70	100	40	40	80	80	20	30												
CC1(C)CC([S+]([O-])Cc2c(Cl)cccc2Cl)=NO1 (racemic) [Racemate of 32 (S config.) and 254 (R config.), 3-[(2,6-dichlorobenzyl)sulfinyl]-5,5-dimethyl-4,5-dihydroisoxazole, reference compound]	90								80	0	10	20	0							
Cn1nc(C(F)(F)F)c(C[S+]([O-])C2=NOC(C)(C)C2)c1OC(F)F (racemic) [Racemate of 483 (S config.) and 664 (R config.), 3-({[5-(difluoromethoxy)-1-methyl-3-(trifluoromethyl)-1H-pyrazol-4-yl]methyl}sulfinyl)-5,5-dimethyl-4,5-dihydroisoxazole, reference compound]	90		80		90		0		0					40	0	0				
CC1(C)CC([S@@+]([O-])Cc2c(F)cccc2F)=NO1 [Compound 6, 3-[(S)-(2,6-Difluorobenzyl)sulfinyl]-5,5-dimethyl-4,5-dihydroisoxazole]	90	100	60	100	80	100	0	0									very good herbicidal activity	very good herbicidal activity		
CC1(C)CC([S@@+]([O-])Cc2c(Cl)cccc2Cl)=NO1 [Compound 32, 3-[(S)-(2,6-Dichlorobenzyl)sulfinyl]-5,5-dimethyl-4,5-dihydroisoxazole]	100								80	0	0	80	40				very good herbicidal activity	very good herbicidal activity	40	100
CC1(C)CC([S@+]([O-])Cc2c(F)cccc2F)=NO1 [Compound 228, 3-[(R)-(2,6-difluorobenzyl)sulfinyl]-5,5-dimethyl-4,5-dihydroisoxazole]	60	80	0	50	0	0	0	0									very good herbicidal activity	very good herbicidal activity		
CC1(C)CC([S@+]([O-])Cc2c(Cl)cccc2Cl)=NO1 [Compound 254, 3-[(R)-(2,6-dichlorobenzyl)sulfinyl]-5,5-dimethyl-4,5-dihydroisoxazole]	60								0	0	0	20	0				very good herbicidal activity	very good herbicidal activity	10	20
Cn1nc(C(F)(F)F)c(C[S@+]([O-])C2=NOC(C)(C)C2)c1OC(F)F [Compound 483, 3-[(S)-{[5-(Difluoromethoxy)-1-methyl-3-(trifluoromethyl)-1H-pyrazol-4-yl]methyl}sulfinyl]-5,5-dimethyl-4,5-dihydroisoxazole]	100		90		100		0		80					80	60	0	very good herbicidal activity	very good herbicidal activity		
Cn1nc(C(F)(F)F)c(C[S@@+]([O-])C2=NOC(C)(C)C2)c1OC(F)F [Compound 664, 3-[(R)-{[5-(difluoromethoxy)-1-methyl-3-(trifluoromethyl)-1H-pyrazol-4-yl]methyl}sulfinyl]-5,5-dimethyl-4,5-dihydroisoxazole]																	very good herbicidal activity	very good herbicidal activity		
